Data set [1] deals with T1, Solute carrier organic anion transporter family member 1B1 (Homo sapiens, UniProt Q9Y6L6).
T1 sequence (Q9Y6L6 whole entry): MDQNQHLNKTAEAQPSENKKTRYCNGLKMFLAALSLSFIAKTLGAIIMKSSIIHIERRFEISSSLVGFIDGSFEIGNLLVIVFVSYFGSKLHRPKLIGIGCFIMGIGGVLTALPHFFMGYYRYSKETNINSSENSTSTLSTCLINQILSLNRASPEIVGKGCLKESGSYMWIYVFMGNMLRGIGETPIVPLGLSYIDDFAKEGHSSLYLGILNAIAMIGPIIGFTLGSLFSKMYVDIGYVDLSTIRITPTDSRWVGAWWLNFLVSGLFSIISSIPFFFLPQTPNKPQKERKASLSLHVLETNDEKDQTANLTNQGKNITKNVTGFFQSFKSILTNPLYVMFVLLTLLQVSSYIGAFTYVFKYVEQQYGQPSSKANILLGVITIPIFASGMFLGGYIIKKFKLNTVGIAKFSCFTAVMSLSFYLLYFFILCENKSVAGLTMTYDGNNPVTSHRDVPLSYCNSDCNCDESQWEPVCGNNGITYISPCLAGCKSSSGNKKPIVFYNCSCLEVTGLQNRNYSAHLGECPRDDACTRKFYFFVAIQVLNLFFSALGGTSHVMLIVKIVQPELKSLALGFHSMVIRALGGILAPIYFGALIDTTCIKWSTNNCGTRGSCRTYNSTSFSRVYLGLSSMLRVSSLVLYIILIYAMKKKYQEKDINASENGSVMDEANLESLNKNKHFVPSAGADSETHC
To be noted: chinese hamster, cho, 10 µM.

In data set [2] the target is T2, Solute carrier organic anion transporter family member 1B3 (Homo sapiens, UniProt Q9NPD5).
T2 sequence (Q9NPD5 whole entry): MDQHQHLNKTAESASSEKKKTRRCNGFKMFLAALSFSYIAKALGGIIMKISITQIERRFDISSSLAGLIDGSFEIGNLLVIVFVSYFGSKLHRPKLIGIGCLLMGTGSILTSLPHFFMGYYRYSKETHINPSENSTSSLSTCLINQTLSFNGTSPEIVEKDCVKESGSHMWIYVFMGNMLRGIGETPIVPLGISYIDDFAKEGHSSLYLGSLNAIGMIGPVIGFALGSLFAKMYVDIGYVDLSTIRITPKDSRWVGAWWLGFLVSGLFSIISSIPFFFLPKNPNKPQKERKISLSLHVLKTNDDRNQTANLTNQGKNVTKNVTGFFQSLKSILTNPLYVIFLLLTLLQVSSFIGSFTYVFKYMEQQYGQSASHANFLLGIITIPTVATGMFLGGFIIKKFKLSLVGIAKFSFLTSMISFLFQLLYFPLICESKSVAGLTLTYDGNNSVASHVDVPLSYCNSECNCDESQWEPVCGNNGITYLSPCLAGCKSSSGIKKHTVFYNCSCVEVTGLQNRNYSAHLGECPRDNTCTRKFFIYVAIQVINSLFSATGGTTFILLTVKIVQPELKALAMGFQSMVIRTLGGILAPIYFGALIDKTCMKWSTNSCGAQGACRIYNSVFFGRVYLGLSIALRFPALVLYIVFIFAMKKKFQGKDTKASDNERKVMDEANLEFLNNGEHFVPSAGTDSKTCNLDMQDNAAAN
Conditions: chinese hamster, cho, 10 µM.

The structures appear in SMILES notation.

Here are results for 40 molecules from ChEMBL document CHEMBL3039007, “Structure-based identification of OATP1B1/3 inhibitors” (Mol Pharmacol, 2013).

A word on the residual activity: it is the signal under treatment as a percentage of the control signal. In the case of `CNC(=O)ON=C(C)SC` [METHOMYL], the residual activity came to 80.5% in data set [1] and 109.3% in data set [2].
Taken in the same sequence, the figures for `COc1ccc(OC)c(C(O)C(C)N)c1.Cl` (stereo not given) [METHOXAMINE HYDROCHLORIDE] were 80.21% and 104.7%.
In the same order, the values of `COc1c2occc2cc2ccc(=O)oc12` [METHOXSALEN] are 102.5% and 107.3%.
In the same order, the values of `CON.Cl` [METHOXYAMINE HYDROCHLORIDE] are 118.4% and 108.6%.
As for `COc1ccc(C(c2ccc(OC)cc2)C(Cl)(Cl)Cl)cc1` [METHOXYCHLOR], the residual activity is 114% in data set [1] and 102.3% in data set [2].
Taken in the same sequence, the figures for `COc1cc(C)c2c(=O)cc(-c3ccccc3)oc2c1` [METHOXYVONE] were 231.1% and 102.8%.
Consider `C[N+]1(C)[C@@H]2C[C@@H](OC(=O)[C@H](CO)c3ccccc3)C[C@H]1[C@@H]1O[C@@H]12.[Br-]` [METHSCOPOLAMINE BROMIDE], for which the values for the residual activity in data set [1] and in data set [2] were 104.8% and 92.61%, respectively.
Taken in the same sequence, the figures for `COC(=O)c1cc(O)c(=O)c2c(O)c(O)ccc2c1` [METHYL 7-DESHYDROXYPYROGALLIN-4-CARBOXYLATE] were 48.16% and 80.24%.
Taken in the same sequence, the figures for `COC(=O)c1cc(OC)c(=O)c2c(OC)c(OC)ccc2c1` [METHYL 7-DESOXYPURPUROGALLIN-7-CARBOXYLATE TRIMETHYL ETHER] were 133.8% and 100.1%.
Taken in the same sequence, the figures for `COc1cc2c(cc1O)C(Cc1ccc(O)cc1)N(C)CC2` (stereo not given) [METHYL COCLAURINE] were 96.63% and 94.46%.
With `COC(=O)CC[C@@H](C)[C@H]1CC[C@H]2[C@@H]3CC[C@@H]4C[C@H](O)CC[C@]4(C)[C@H]3C[C@H](O)[C@]12C` [METHYL DEOXYCHOLATE], the residual activity in data set [1] worked out at 62.17%; in data set [2], 71.46%.
Taken in the same sequence, the figures for `COC(=O)c1c(C)cc(O)cc1O` [METHYL ORSELLINATE] were 90.83% and 98.38%.
Consider `COP(=S)(OC)Oc1ccc([N+](=O)[O-])cc1` [METHYL PARATHIONE], for which the residual activity stood at 107.9% in data set [1] and 100.2% in data set [2].
In the same order, the values of `COc1c2c(cc3occ(-c4ccc5c(c4)OCO5)c(=O)c13)OC(C)(C)C=C2` [METHYL ROBUSTONE] are 133% and 107.5%.
Taken in the same sequence, the figures for `C=C1[C@@H]2CC[C@@]3(C)[C@H](c4ccoc4)OC(=O)C[C@]13O[C@H]1CC(=O)C(C)(C)[C@H](CC(=O)OC)[C@]12C` [METHYLANGOLENSATE] were 20.27% and 33.7%.
Taken in the same sequence, the figures for `Cc1coc2ccccc2c1=O` [METHYLCHROMONE] were 91.88% and 92.21%.
On to `C[C@](N)(Cc1ccc(O)c(O)c1)C(=O)O` [METHYLDOPA], for which the residual activity stood at 111.3% in data set [1] and 103.5% in data set [2].
Regarding `CC[C@@H](CO)NC(=O)[C@@H]1C=C2c3cccc4[nH]cc(c34)C[C@H]2N(C)C1.O=C(O)/C=C\C(=O)O` [METHYLERGONOVINE MALEATE], the figures for the residual activity in data set [1] and in data set [2] were 77.53% and 108.9%, respectively.
Taken in the same sequence, the figures for `CCOC(=O)c1c(C)cc(O)c(C)c1O` [METHYLORSELLINIC ACID, ETHYL ESTER] were 76.13% and 105.6%.
In the same order, the values of `CC(=O)OCC(=O)[C@@]1(O)CC[C@H]2[C@@H]3C[C@H](C)C4=CC(=O)C=C[C@]4(C)[C@H]3[C@@H](O)C[C@@]21C` [METHYLPREDNISOLONE ACETATE] are 52.04% and 84.05%.
With `C[C@H]1C[C@@H]2[C@H]([C@@H](O)C[C@@]3(C)[C@H]2CC[C@]3(O)C(=O)CO)[C@@]2(C)C=CC(=O)C=C12` [METHYLPREDNISOLONE], the residual activity is listed as 79.56% in data set [1] and 93.74% in data set [2].
In the same order, the values of `Cc1cc(=O)[nH]c(=S)[nH]1` [METHYLTHIOURACIL] are 83.19% and 80.5%.
In the same order, the values of `CCc1cccc(C)c1N(C(=O)CCl)C(C)COC` (stereo not given) [METOLACHOR] are 93.33% and 101.7%.
Regarding `Cc1ccccc1N1C(=O)c2cc(S(N)(=O)=O)c(Cl)cc2NC1C` (stereo not given) [METOLAZONE], the residual activity worked out at 62.42% in data set [1] and 66.79% in data set [2].
In the same order, the values of `Cc1ncc([N+](=O)[O-])n1CCO` [METRONIDAZOLE] are 102.6% and 98.27%.
Taken in the same sequence, the figures for `C[C@](N)(Cc1ccc(O)cc1)C(=O)O` [METYROSINE] were 64.38% and 84.41%.
Taken in the same sequence, the figures for `COC(=O)C[C@H]1C(C)(C)C(=O)[C@@H]2CC3=C4CC(=O)O[C@@H](c5ccoc5)[C@]4(C)CC[C@@H]3[C@@]1(C)C2=O` [MEXICANOLIDE] were 44.09% and 122.7%.
For the molecule `Clc1ccc(COC(Cn2ccnc2)c2ccc(Cl)cc2Cl)c(Cl)c1.O=[N+]([O-])O` (stereo not given) [MICONAZOLE NITRATE], the residual activity in data set [1] amounted to 124.1%; in data set [2], 119.9%.
In the same order, the values of `COc1ccc(OC)c(C(O)CNC(=O)CN)c1.Cl` (stereo not given) [MIDODRINE HYDROCHLORIDE] are 101.7% and 88.99%.
In the same order, the values of `OCCN1C[C@H](O)[C@@H](O)[C@H](O)[C@H]1CO` [MIGLITOL] are 99.55% and 80.3%.
Consider `CCCCCCCCCCCCCCCCOP(=O)([O-])OCC[N+](C)(C)C` [MILTEFOSINE], for which the residual activity in data set [1] is reported as 89.28%; in data set [2], 93.25%.
In the same order, the values of `CN(C)c1ccc(O)c2c1C[C@H]1C[C@H]3[C@H](N(C)C)C(O)=C(C(N)=O)C(=O)[C@@]3(O)C(O)=C1C2=O.Cl` [MINOCYCLINE HYDROCHLORIDE] are 100.7% and 96.34%.
Turning to `Nc1cc(N2CCCCC2)nc(N)[n+]1[O-]` [MINOXIDIL], the residual activity came out at 93.9% in data set [1] and 92.39% in data set [2].
In the same order, the values of `Clc1ccc(C(c2ccccc2Cl)C(Cl)Cl)cc1` (stereo not given) [MITOTANE] are 107.6% and 98.27%.
Taken in the same sequence, the figures for `NC(=O)c1ncn([C@@H]2O[C@H](CO)[C@@H](O)[C@H]2O)c1O` [MIZORIBINE] were 113.4% and 100.4%.
With `NC(=O)C[S+]([O-])C(c1ccccc1)c1ccccc1` (stereo not given) [MODAFINIL], the residual activity in data set [1] is recorded as 113.7%; in data set [2], 95.61%.
In the same order, the values of `CCOC(=O)[N-]c1cn(N2CCOCC2)n[o+]1` [MOLSIDOMINE] are 70.9% and 97.14%.
In the same order, the values of `C[C@@H]1C[C@H]2[C@@H]3CCC4=CC(=O)C=C[C@]4(C)[C@@]3(Cl)[C@@H](O)C[C@]2(C)[C@@]1(OC(=O)c1ccco1)C(=O)CCl` [MOMETASONE FUROATE] are 34.01% and 25.64%.
Turning to `CC[C@@]1([C@H]2O[C@H]([C@H]3O[C@@](O)(CO)[C@H](C)C[C@@H]3C)C[C@H]2C)CC[C@H]([C@@]2(C)CC[C@]3(C[C@H](O)[C@@H](C)[C@@H]([C@H](C)[C@H](OC)[C@@H](C)C(=O)[O-])O3)O2)O1.[Na+]` [MONENSIN SODIUM], the figures for the residual activity in data set [1] and in data set [2] were 78.11% and 87%, respectively.
As to `C[C@H]1C(=O)O[C@@H]2CCN3CC=C(COC(=O)[C@](C)(O)[C@]1(C)O)[C@H]23` [MONOCROTALINE], the results for the residual activity in data set [1] and in data set [2] were 100.7% and 94.85%, respectively.
